Data set [1] concerns the target recombinant human liver GK (Homo sapiens, UniProt P35557). In words: biochemical. Details: Emax: dose or concentration left out as unconfirmed. An excerpt: The glucokinase activity may be determined not by directly measuring glucose-6-phosphate but by measuring the level of Thio-NADH, which is produced when a reporter enzyme, glucose-6-phosphate dehydrogenase produces phosphogluconolactone from glucose-6-phosphate, and based on the level, the degree of glucokinase activity of the compound tested may be determined.
In this assay, used was a recombinant human liver GK, which was expressed by E. coli as a FLAG fusion protein therein and was purified by […] M2 AFFINITY GEL (Sigma).
69 μl of an assay buffer (25 mM Hepes Buffer/pH=7.2, 2 mM MgCl2, 1 mM ATP, 0.5 mM TNAD, 1 mM dithiothreitol) was put into the plate, and 1 μl of a DMSO solution of the compound or DMSO alone as a control was added thereto. Next, 20 μl of an enzyme mixture (FLAG-GK, 20 U/ml G6PDH) cooled in ice was added to it, and 10 μl of a substrate, 25 mM glucose was added to it, and the reaction was initiated (final glucose concentration=2.5 mM).
The OD level of the DMSO control was set as 100%; and the OD level of the test compound at different concentrations was determined. From the OD level at each concentration, Emax (%) and EC50 (μM) were computed and used as the index of the GK-activating potency of the compound.

Data set [2] in a line: Thermogravimetric analysis. It is filed as physicochemical. The note with it: flow of nitrogen, heating rate 10° C./min. The protocol: (§1) A Perkin Elmer model TG 7 or equivalent instrument is used. Experiments are performed under a flow of nitrogen and using a heating rate 10° C./min to a maximum temperature of 500° C. Approximately 10 mg of sample is added to the platinum pan. Weight/temperature data are collected automatically by the instrument. Compound 9 doesn't show obvious weight loss until 180° C.

Data set [3] can be described thus: Solid-state properties of the crystal compared to the amorphous form (from thermogravimetric analysis and X-ray powder diffraction). It is filed as physicochemical. The following applies: compared to amorphous form of the free benzamide of patent document 1. Here is the method: as §1
Obtain the X-ray diffraction pattern of a finely-powdered, randomly orientated sample, using copper K alpha X-radiation from 4 to 40 theta.
Bruker powder X-ray diffractometer D8ADVANCE (at 2 kW) (bull car ray X id bull car ray X id Co., Ltd.) is used, and a powder X-ray diffraction experiment was done.

This note sets out measurements from patent US20100222394A1, “METHOD FOR PRODUCING PYRAZOL-3-YL-BENZAMIDE DERIVATIVE” (priority 2007, published 2010).

The structures appear in SMILES notation.

recombinant human liver GK, sequence (P35557 1-466 isoform P35557-2): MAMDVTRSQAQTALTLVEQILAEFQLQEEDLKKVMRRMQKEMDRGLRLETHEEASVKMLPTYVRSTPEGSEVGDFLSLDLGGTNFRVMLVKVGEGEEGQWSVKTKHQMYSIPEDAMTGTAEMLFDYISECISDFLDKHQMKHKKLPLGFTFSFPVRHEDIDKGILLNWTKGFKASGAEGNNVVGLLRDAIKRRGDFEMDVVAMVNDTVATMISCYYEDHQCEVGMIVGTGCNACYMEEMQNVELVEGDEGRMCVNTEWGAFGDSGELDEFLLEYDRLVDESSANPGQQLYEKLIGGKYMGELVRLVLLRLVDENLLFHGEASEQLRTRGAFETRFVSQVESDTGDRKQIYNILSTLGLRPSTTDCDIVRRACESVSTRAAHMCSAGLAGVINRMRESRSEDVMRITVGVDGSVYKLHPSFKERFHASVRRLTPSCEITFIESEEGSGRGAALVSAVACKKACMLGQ

For `CCS(=O)(=O)c1ccc(Oc2cc(O[C@@H](C)CO)cc(C(=O)Nc3ccn(C)n3)c2)cn1.CS(=O)(=O)O` [3-(6-ethanesulfonylpyridin-3-yloxy)-5-((1S)-2-hydroxy-1-methyl-ethoxy)-N-(1-methyl-1H-pyrazol-3-yl)benzamide methanesulfonate], in data set [1], the EC50 (commonly the concentration giving half of the maximal effect) is 30 nM and the maximum response (Emax) (in general, the size of the effect at its maximum, as opposed to the concentration needed) worked out at 828%. In addition, the “temperature until which no obvious weight loss is shown” value in data set [2] was at least 180 °C. For the same compound, in data set [3], the hygroscopicity entry is “less hygroscopicity” and the physical stability entry is listed as “stability physically”.
